The values that follow come from patent US8158792B2, “Spiropiperidines for use as tryptase inhibitors” (Janssen Pharmaceutica N.V., priority 2007, dated 2012).

In the assay the target is human lung tryptase. Kind of assay: β-Tryptase In-Vitro Enzyme Assay. In kind it is biochemical. Conditions: human lung tryptase 1 nM, substrate H-D-HHT-Ala-Arg-pNa 500 μM, pH 7.4, room temperature. The method, then:
The β-tryptase assay was conducted with human lung tryptase (Cortex Biochem #CP3033) in an aqueous buffer (10 mM Tris, 10 mM Hepes, 150 mM NaCl, 0.1% PEG 8000, pH 7.4) using the chromogenic substrate H-D-HHT-Ala-Arg-pNa. […] Percent inhibition was calculated by comparing the initial reaction velocity of samples without inhibitor to those with inhibitor. The initial reaction velocities were analyzed using Microsoft Excel.

The structures appear in SMILES notation.

In turn, `CCOCCOc1cccc(/C=C/C(=O)N2CCC3(CC2)COc2ccc(CN)cc23)c1` [Cpd 302, (E)-1-[3-(2-ethoxy-ethoxy)-phenylethenyl]carbonyl-5′-aminomethyl-spiro[piperidine-4,3′-(2H)-benzo[b]furan]] registered an IC50 of 750 nM. The figure for `CCCOc1sc(C(=O)N2CCC3(CC2)COc2ccc(CN)cc23)c(C)c1Br` [Cpd 303, 1-(3-methyl-4-bromo-5-propoxy-thien-2-yl)carbonyl-5′-aminomethyl-spiro[piperidine-4,3′-(2H)-benzo[b]furan]] is 3.7 nM; for `O=CNCc1ccc2c(c1)C1(CCN(C(=O)c3ccc(C#Cc4ccccc4)o3)CC1)CO2` [Cpd 304, 1-(5-phenylethynyl-furan-2-yl)carbonyl-5′-formylaminomethyl-spiro[piperidine-4,3′-(2H)-benzo[b]furan]] it is 30 nM.

`NS(=O)(=O)NCc1ccc2c(c1)C1(CCN(C(=O)c3ccc(C#Cc4ccccc4)o3)CC1)CO2` [Cpd 305, 1-(5-phenylethynyl-furan-2-yl)carbonyl-5′-aminosulfonylaminomethyl-spiro[piperidine-4,3′-(2H)-benzo[b]furan]]: inhibition was half-maximal at 6300 nM (IC50).

For the molecule `N=C(NO)c1ccc2c(c1)C1(CCN(C(=O)c3ccc(C#Cc4ccccc4)o3)CC1)CO2` [Cpd 306, 1-(5-phenylethynyl-furan-2-yl)carbonyl-5′-[hydroxyamino(imino)methyl]-spiro[piperidine-4,3′-(2H)-benzo[b]furan]], inhibition was half-maximal at 71 nM (IC50).

In turn, `N=C(NN)c1ccc2c(c1)C1(CCN(C(=O)c3ccc(C#Cc4ccccc4)o3)CC1)CO2` [Cpd 307, 1-(5-phenylethynyl-furan-2-yl)carbonyl-5′-[hydrazino(imino)methyl]-spiro[piperidine-4,3′-(2H)-benzo[b]furan]] had an IC50 of 60 nM.

For the molecule `NCc1cc2c(cc1F)OCC21CCN(C(=O)c2ccc(Cl)c(Cl)c2)CC1` [Cpd 308, 1-(3,4-dichlorophenyl)carbonyl-5′-aminomethyl-6′-fluoro-spiro[piperidine-4,3′-(2H)-benzo[b]furan]], half-maximal inhibition (IC50) was put at 7300 nM.

On to `NCc1ccc2c(c1)C1(CCN(C(=O)/C=C/c3ccccc3F)CC1)CO2` [Cpd 309, (E)-1-(2-fluoro-phenylethenyl)carbonyl-5′-aminomethyl-spiro[piperidine-4,3′-(2H)-benzo[b]furan]], for which the midpoint of inhibition, the IC50, lay at 100 nM. The figure for `CNC(=N)c1ccc2c(c1)C1(CCN(C(=O)c3ccc(C#Cc4ccccc4)o3)CC1)CO2` [Cpd 310, 1-(5-phenylethynyl-furan-2-yl)carbonyl-5′-[methylamino(imino)methyl]-spiro[piperidine-4,3′-(2H)-benzo[b]furan]] is 780 nM; for `NCc1cc2c(cc1F)OCC21CCN(C(=O)c2ccc(C#Cc3ccccc3)o2)CC1` [Cpd 311, 1-(5-phenylethynyl-furan-2-yl)carbonyl-5′-aminomethyl-6′-fluoro-spiro[piperidine-4,3′-(2H)-benzo[b]furan]] it is 39 nM; for `NCc1ccc2c(c1)C1(CCN(C(=O)/C=C/c3cccc(F)c3F)CC1)CO2` [Cpd 312, (E)-1-(2,3-difluoro-phenylethenyl)carbonyl-5′-aminomethyl-spiro[piperidine-4,3′-(2H)-benzo[b]furan]] it is 590 nM. The figure for `CN(C)C(=N)c1ccc2c(c1)C1(CCN(C(=O)c3ccc(C#Cc4ccccc4)o3)CC1)CO2` [Cpd 313, 1-(5-phenylethynyl-furan-2-yl)carbonyl-5′-[dimethylamino(imino)methyl]-spiro[piperidine-4,3′-(2H)-benzo[b]furan]] is 140 nM; for `NCCc1ccc2c(c1)C1(CCN(C(=O)c3ccc(C#Cc4ccccc4)o3)CC1)CO2` [Cpd 314, 1-(5-phenylethynyl-furan-2-yl)carbonyl-5′-aminoethyl-spiro[piperidine-4,3′-(2H)-benzo[b]furan]] it is 1300 nM. The figure for `NCc1ccc2c(c1)C1(CCN(C(=O)c3ccc(Cl)c(Cl)c3)CC1)C(=O)N2` [Cpd 315, 1-(3,4-dichlorophenyl)carbonyl-2′-oxo-5′-aminomethyl-spiro[piperidine-4,3′-(2H)-indole]] is 480 nM; for `COc1ccc(CN2C(=O)c3ccc(CN)cc3C23CCN(C(=O)c2ccc(C#Cc4ccccc4)o2)CC3)c(OC)c1` [Cpd 316, 1-(5-phenylethynyl-furan-2-yl)carbonyl-1′-oxo-2′-(2,4-dimethoxy-benzyl)-5′-aminomethyl-spiro[piperidine-4,3′-1H-isoindole]] it is 74 nM. Consider `NCc1ccc2c(c1)C1(CCN(C(=O)c3ccc(C#Cc4ccccc4)o3)CC1)NC2=O` [Cpd 317, 1-(5-phenylethynyl-furan-2-yl)carbonyl-1′-oxo-5′-aminomethyl-spiro[piperidine-4,3′-1H-isoindole]], for which the half-maximal inhibitory concentration (IC50) was found to be 7.3 nM. The figure for `NCc1ccc2c(c1)C1(CC2)CCN(C(=O)c2ccc(C#Cc3ccccc3)o2)CC1` [Cpd 318, 1-(5-phenylethynyl-furan-2-yl)carbonyl-5′-aminomethyl-spiro[piperidine-4,3′-indane]] is 3.1 nM. The figure for `NCc1ccc2c(c1)C1(CCN(C(=O)c3ccc(C#Cc4ccccc4)o3)CC1)CN2` [Cpd 319, 1-(5-phenylethynyl-furan-2-yl)carbonyl-5′-aminomethyl-spiro[piperidine-4,3′-(2H)-indole]] is 26 nM; for `CCN1CC2(CCN(C(=O)c3ccc(C#Cc4ccccc4)o3)CC2)c2cc(CN)ccc21` [Cpd 320, 1-(5-phenylethynyl-furan-2-yl)carbonyl-1′-ethyl-5′-aminomethyl-spiro[piperidine-4,3′-(2H)-indole]] it is 280 nM. The figure for `COC(=O)CCN1CC2(CCN(C(=O)c3ccc(C#Cc4ccccc4)o3)CC2)c2cc(CN)ccc21` [Cpd 321, 1-(5-phenylethynyl-furan-2-yl)carbonyl-1′-(2-methoxycarbonyl-ethyl)-5′-aminomethyl-spiro[piperidine-4,3′-(2H)-indole]] is 160 nM; for `NCc1ccc2c(c1)C1(CCN(C(=O)c3ccc(C#Cc4ccccc4)o3)CC1)CN2CCC(=O)O` [Cpd 322, 1-(5-phenylethynyl-furan-2-yl)carbonyl-1′-(2-carboxy-ethyl)-5′-aminomethyl-spiro[piperidine-4,3′-(2H)-indole]] it is 450 nM; for `COC(=O)N1CC2(CCN(C(=O)c3ccc(C#Cc4ccccc4)o3)CC2)c2cc(CN)ccc21` [Cpd 323, 1-(5-phenylethynyl-furan-2-yl)carbonyl-1′-methoxycarbonyl-5′-aminomethyl-spiro[piperidine-4,3′-(2H)-indole]] it is 110 nM.

In turn, `NCc1ccc2c(c1)C1(CCN(C(=O)c3ccc(C#Cc4ccccc4)o3)CC1)CN2S(=O)(=O)c1ccc(C(=O)O)cc1` [Cpd 324, 1-(5-phenylethynyl-furan-2-yl)carbonyl-1′-(4-carboxy-phenyl)sulfonyl-5′-aminomethyl-spiro[piperidine-4,3′-(2H)-indole]] showed an IC50 of 200 nM. The figure for `NCc1ccc2c(c1)C1(CCN(C(=O)c3ccc(C#Cc4ccccc4)o3)CC1)CN2C(N)=O` [Cpd 325, 1-(5-phenylethynyl-furan-2-yl)carbonyl-1′-aminocarbonyl-5′-aminomethyl-spiro[piperidine-4,3′-(2H)-indole]] is 25 nM; for `NCc1ccc2c(c1)C1(CCN(C(=O)c3ccc(C#Cc4ccccc4)o3)CC1)CN2CCP(=O)(O)O` [Cpd 326, 1-(5-phenylethynyl-furan-2-yl)carbonyl-5′-aminomethyl-spiro[piperidine-4,3′-(2H)-indole]-1′-(2-ethyl-phosphonic acid)] it is 470 nM. The figure for `NCc1ccc2c(c1)C1(CCN(C(=O)c3ccc(C#Cc4ccccc4)o3)CC1)CN2S(=O)(=O)O` [Cpd 327, 1-(5-phenylethynyl-furan-2-yl)carbonyl-1′-hydroxysulfonyl-5′-aminomethyl-spiro[piperidine-4,3′-(2H)-indole]] is 18 nM; for `COC(=O)c1cccc(C(=O)N2CC3(CCN(C(=O)c4ccc(C#Cc5ccccc5)o4)CC3)c3cc(CN)ccc32)c1` [Cpd 328, 1-(5-phenylethynyl-furan-2-yl)carbonyl-1′-(3-methoxycarbonyl-phenyl)carbonyl-5′-aminomethyl-spiro[piperidine-4,3′-(2H)-indole]] it is 290 nM.

In turn, `CCOC(=O)C(=O)N1CC2(CCN(C(=O)c3ccc(C#Cc4ccccc4)o3)CC2)c2cc(CN)ccc21` [Cpd 329, 1-(5-phenylethynyl-furan-2-yl)carbonyl-1′-(2-ethoxy-1,2-dioxo-ethyl)-5′-aminomethyl-spiro[piperidine-4,3′-(2H)-indole]] gave an IC50 of 44 nM. The figure for `NCc1ccc2c(c1)C1(CCN(C(=O)c3ccc(C#Cc4ccccc4)o3)CC1)CN2C(=O)Cc1nnn[nH]1` [Cpd 330, 1-(5-phenylethynyl-furan-2-yl)carbonyl-1′-(2-1H-tetrazol-5-yl-1-oxo-ethyl)-5′-aminomethyl-spiro[piperidine-4,3′-(2H)-indole]] is 25 nM; for `NCc1ccc2c(c1)C1(CCN(C(=O)c3ccc(C#Cc4ccccc4)o3)CC1)CN2S(=O)(=O)c1cccc(C(=O)O)c1` [Cpd 331, 1-(5-phenylethynyl-furan-2-yl)carbonyl-1′-(3-carboxy-phenyl)sulfonyl-5′-aminomethyl-spiro[piperidine-4,3′-(2H)-indole]] it is 41 nM. The figure for `CCOC(=O)CC(NNC)C(=O)N1CC2(CCN(C(=O)c3ccc(C#Cc4ccccc4)o3)CC2)c2cc(CN)ccc21` (centres unmarked) [Cpd 332, 1-(5-phenylethynyl-furan-2-yl)carbonyl-1′-[4-ethoxy-2-(methylamino)amino-1,4-dioxo-butyl]-5′-aminomethyl-spiro[piperidine-4,3′-(2H)-indole]] is 28 nM; for `CS(=O)(=O)CC(=O)N1CC2(CCN(C(=O)c3ccc(C#Cc4ccccc4)o3)CC2)c2cc(CN)ccc21` [Cpd 333, 1-(5-phenylethynyl-furan-2-yl)carbonyl-1′-(methylsulfonylmethyl)carbonyl-5′-aminomethyl-spiro[piperidine-4,3′-(2H)-indole]] it is 65 nM.
